Starred links: 1 amine or outer side, 2 acyl side, 3 side chain; linkers in the order of their positions; H or OH if unused. Non-standard residues stand in square brackets, D forms with d. Residues, ends and D or L forms follow the SMILES beside them. *: point of attachment. DOTAGA = O=C(O)CN1CCN(CC(=O)O)CCN(C(CCC(=O)*)C(=O)O)CCN(CC(=O)O)CC1; Benzoyl(4-SiFtBu2) = CC(C)(C)[Si](F)(c1ccc(C(=O)*)cc1)C(C)(C)C; d(γGlu) = O=C(O)[C@@H](CCC(=O)[*:2])N[*:1]; Nle = CCCC[C@H](N)C(=O)O; dDap = NC[C@@H](N)C(=O)O
How the values were obtained:
[1] = molecular target: T1, CCK-2R (Rattus norvegicus, UniProt P30553); assay: Determination of IC50: CCK-2R affinity on AR4-2J cells, competition with [^177Lu]Lu-DOTA-PP-F11N; assay type: binding; settings: read-out: IC50 [nM] (n = 3), ^natLu-labeled; AR4-2J cells; ^natLu-labeled
T1 construct: The CCK-2R expressing rat pancreatic tumor cells AR4-2J; host or cells: AR4-2J rat pancreatic tumor cells
T1 sequence (P30553 1-452): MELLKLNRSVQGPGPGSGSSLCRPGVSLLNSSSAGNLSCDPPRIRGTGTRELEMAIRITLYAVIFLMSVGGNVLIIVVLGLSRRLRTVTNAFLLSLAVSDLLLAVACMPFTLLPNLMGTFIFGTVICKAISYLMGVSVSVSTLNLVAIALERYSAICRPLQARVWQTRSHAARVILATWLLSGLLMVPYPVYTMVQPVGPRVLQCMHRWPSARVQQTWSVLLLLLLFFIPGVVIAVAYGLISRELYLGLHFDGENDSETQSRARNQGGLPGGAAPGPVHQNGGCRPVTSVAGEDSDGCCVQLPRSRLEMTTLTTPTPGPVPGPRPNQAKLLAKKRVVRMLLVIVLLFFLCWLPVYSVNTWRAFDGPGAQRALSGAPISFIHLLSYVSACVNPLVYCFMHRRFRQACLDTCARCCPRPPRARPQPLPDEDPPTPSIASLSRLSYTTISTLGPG
Method in brief: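 Competitive displacement of 0.3 pmol/well [177Lu]Lu-DOTA-PP-F11N by compounds (10^-10 to 10^-4 M) on AR4-2J cells in BSA-supplemented medium, 3 h at 37 °C. Free label was collected from medium plus PBS rinse, and cell-bound label was recovered with 1 M NaOH, both measured by γ-counter. Each IC50 was determined twice, in triplicate.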

[2] = n-Octanol-PBS distribution coefficient (logD7.4); assay type: physicochemical; settings: pH = 7.4, ^177Lu-labeled
Procedure: Approximately 1 MBq of the labeled tracer was dissolved in 1 mL of a 1/1 mixture (v/v) of phosphate buffered saline (PBS, pH = 7.4) and n-octanol in an Eppendorf tube (1.5 mL). After vigorous mixing of the suspension for 3 min at rt, the vial was centrifuged at 9,000 rpm for 5 min (Biofuge 15, Heraeus Sepatech, Osterode, Germany) and 200 µL aliquots of both layers were measured in a γ-counter. The experiment was repeated at least five times.

In the case of `CCCC[C@H](NC(=O)[C@H](Cc1c[nH]c2ccccc12)NC(=O)CNC(=O)[C@H](Cc1ccc(O)cc1)NC(=O)[C@H](C)NC(=O)CC[C@@H](NC(=O)CC[C@@H](NC(=O)CC[C@@H](NC(=O)CC[C@@H](NC(=O)CC[C@@H](NC(=O)CC[C@@H](NC(=O)CC[C@@H](NC(=O)[C@@H](CNC(=O)c1ccc([Si](F)(C(C)(C)C)C(C)(C)C)cc1)NC(=O)CCC(C(=O)O)N1CCN(CC(=O)O)CCN(CC(=O)O)CCN(CC(=O)O)CC1)C(=O)O)C(=O)O)C(=O)O)C(=O)O)C(=O)O)C(=O)O)C(=O)O)C(=O)N[C@@H](CC(=O)O)C(=O)N[C@@H](Cc1ccccc1)C(N)=O` (stereo partly shown) [DOTAGA-MG-SiFA-22, DOTAGA-dap(SiFA)-γ-glu-γ-F11N], the IC50 [1] is reported as 29.5 ± 1.9 nM and the “logD7.4 (n ≥ 5), ^177Lu-labeled” value [2] is reported as −2.16 ± 0.09.

For `CCCC[C@H](NC(=O)[C@H](Cc1c[nH]c2ccccc12)NC(=O)CNC(=O)[C@H](Cc1ccc(O)cc1)NC(=O)[C@H](C)NC(=O)CC[C@@H](NC(=O)CC[C@@H](NC(=O)CC[C@@H](NC(=O)CC[C@@H](NC(=O)CC[C@@H](NC(=O)CC[C@@H](NC(=O)CC[C@@H](NC(=O)CC[C@@H](NC(=O)[C@@H](CNC(=O)c1ccc([Si](F)(C(C)(C)C)C(C)(C)C)cc1)NC(=O)CCC(C(=O)O)N1CCN(CC(=O)O)CCN(CC(=O)O)CCN(CC(=O)O)CC1)C(=O)O)C(=O)O)C(=O)O)C(=O)O)C(=O)O)C(=O)O)C(=O)O)C(=O)O)C(=O)N[C@@H](CC(=O)O)C(=O)N[C@@H](Cc1ccccc1)C(N)=O` (stereo partly shown) [DOTAGA-MG-SiFA-23, DOTAGA-dap(SiFA)-(γ-glu)2-γ-F11N], the IC50 [1] was 20.4 ± 2 nM and the “logD7.4 (n ≥ 5), ^177Lu-labeled” value [2] was −2.10 ± 0.06.

For `CCCC[C@H](NC(=O)[C@H](Cc1c[nH]c2ccccc12)NC(=O)CNC(=O)[C@H](Cc1ccc(O)cc1)NC(=O)[C@H](C)NC(=O)CC[C@@H](NC(=O)CC[C@@H](NC(=O)CC[C@@H](NC(=O)CC[C@@H](NC(=O)[C@@H](CNC(=O)c1ccc([Si](F)(C(C)(C)C)C(C)(C)C)cc1)NC(=O)CC[C@@H](NC(=O)CC[C@@H](NC(=O)CC[C@@H](NC(=O)CCC(C(=O)O)N1CCN(CC(=O)O)CCN(CC(=O)O)CCN(CC(=O)O)CC1)C(=O)O)C(=O)O)C(=O)O)C(=O)O)C(=O)O)C(=O)O)C(=O)O)C(=O)N[C@@H](CC(=O)O)C(=O)N[C@@H](Cc1ccccc1)C(N)=O` (stereo partly shown) [DOTAGA-MG-SiFA-24, DOTAGA-(γ-glu)2-[dap(SiFA)^2]γ-F11N] ({DOTAGA-d(γGlu)-d(γGlu)-d(γGlu)}-[dDap](Benzoyl(4-SiFtBu2))[d(γGlu)][d(γGlu)][d(γGlu)][d(γGlu)]AYGW[Nle]DF-NH2), the IC50 [1] was 66.6 ± 4.4 nM and the “logD7.4 (n ≥ 5), ^177Lu-labeled” value [2] was −2.72 ± 0.05.

With `CCCC[C@H](NC(=O)[C@H](Cc1c[nH]c2ccccc12)NC(=O)CNC(=O)[C@H](Cc1ccc(O)cc1)NC(=O)[C@H](C)NC(=O)CC[C@@H](NC(=O)CC[C@@H](NC(=O)CC[C@@H](NC(=O)CC[C@@H](NC(=O)[C@@H](CNC(=O)c1ccc([Si](F)(C(C)(C)C)C(C)(C)C)cc1)NC(=O)CC[C@@H](NC(=O)CC[C@@H](NC(=O)CC[C@@H](NC(=O)CC[C@@H](NC(=O)CCC(C(=O)O)N1CCN(CC(=O)O)CCN(CC(=O)O)CCN(CC(=O)O)CC1)C(=O)O)C(=O)O)C(=O)O)C(=O)O)C(=O)O)C(=O)O)C(=O)O)C(=O)O)C(=O)N[C@@H](CC(=O)O)C(=O)N[C@@H](Cc1ccccc1)C(N)=O` (stereo partly shown) [DOTAGA-MG-SiFA-25, DOTAGA-(γ-glu)3-[dap(SiFA)^2]γ-F11N] ({DOTAGA-d(γGlu)-d(γGlu)-d(γGlu)-d(γGlu)}-[dDap](Benzoyl(4-SiFtBu2))[d(γGlu)][d(γGlu)][d(γGlu)][d(γGlu)]AYGW[Nle]DF-NH2) the IC50 [1] was 62.9 ± 8.1 nM and the “logD7.4 (n ≥ 5), ^177Lu-labeled” value [2] was −2.74 ± 0.04.

For `CCCC[C@H](NC(=O)[C@H](Cc1c[nH]c2ccccc12)NC(=O)CNC(=O)[C@H](Cc1ccc(O)cc1)NC(=O)[C@H](C)NC(=O)CC[C@@H](NC(=O)CC[C@@H](NC(=O)CC[C@@H](NC(=O)CC[C@@H](NC(=O)CC[C@@H](NC(=O)[C@@H](CNC(=O)c1ccc([Si](F)(C(C)(C)C)C(C)(C)C)cc1)NC(=O)CC[C@@H](NC(=O)CC[C@@H](NC(=O)CC[C@@H](NC(=O)CC[C@@H](NC(=O)CCC(C(=O)O)N1CCN(CC(=O)O)CCN(CC(=O)O)CCN(CC(=O)O)CC1)C(=O)O)C(=O)O)C(=O)O)C(=O)O)C(=O)O)C(=O)O)C(=O)O)C(=O)O)C(=O)O)C(=O)N[C@@H](CC(=O)O)C(=O)N[C@@H](Cc1ccccc1)C(N)=O` (stereo partly shown) [DOTAGA-MG-SiFA-26, DOTAGA-(γ-glu)4-[dap(SiFA)^1]γ-F11N] ({DOTAGA-d(γGlu)-d(γGlu)-d(γGlu)-d(γGlu)}-[dDap](Benzoyl(4-SiFtBu2))[d(γGlu)][d(γGlu)][d(γGlu)][d(γGlu)][d(γGlu)]AYGW[Nle]DF-NH2), the IC50 [1] was 37.1 ± 3.8 nM and the “logD7.4 (n ≥ 5), ^177Lu-labeled” value [2] was −2.89 ± 0.04.

— patent EP4631959A2, “NOVEL MINIGASTRIN-DERIVED CHOLECYSTOKININ 2 RECEPTOR BINDING MOLECULES FOR IMAGING AND TARGETED RADIOTHERAPY” (priority 2022, dated 2024)
